{"source": "patent US4034092A", "about": "“7-Acyl-3-(carboxyalkyl and carbamoylalkyl substituted oxadiazolylthiomethyl) cephalosporins” (SmithKline Corporation, priority 1976, dated 1977)", "key": {"S. aureus HH 125": {"tested_on": "S. aureus HH 125", "assay": "in vitro MIC testing, S. aureus HH 125", "type": "cell-based", "conditions": "Staphylococcus aureus, HH125", "protocol": "(§1) The compounds of Formula I have exceptional antibacterial activity against both Gram-positive and Gram-negative organisms. Minimum inhibitory concentrations (MIC's) range from 0.2 to >200 μg./ml. in in vitro testing. Test results for the compound 7-D-mandelamido-3-(5-carboxymethyl-1,3,4-oxadiazol-2-ylthiomethyl)-3-cephem-4-carboxylic acid and its disodium salt, respectively, are given below: […]"}, "S. aureus SK 23390": {"tested_on": "S. aureus SK 23390", "assay": "in vitro MIC testing, S. aureus SK 23390", "type": "cell-based", "conditions": "Staphylococcus aureus, SK23390", "protocol": "as §1"}, "S. villaluz SK 70390": {"tested_on": "S. villaluz SK 70390", "assay": "in vitro MIC testing, S. villaluz SK 70390", "type": "cell-based", "protocol": "as §1"}, "Strep. faecalis HH 34358": {"tested_on": "Strep. faecalis HH 34358", "assay": "in vitro MIC testing, Strep. faecalis HH 34358", "type": "cell-based", "conditions": "Enterococcus faecalis, HH34358", "protocol": "as §1"}, "E. coli SK 12140": {"tested_on": "E. coli SK 12140", "assay": "in vitro MIC testing, E. coli SK 12140", "type": "cell-based", "conditions": "Escherichia coli, SK12140", "protocol": "as §1"}, "E. coli HH 33779": {"tested_on": "E. coli HH 33779", "assay": "in vitro MIC testing, E. coli HH 33779", "type": "cell-based", "conditions": "Escherichia coli, HH33779", "protocol": "as §1"}, "Kleb. pneumo. SK 1200": {"tested_on": "Kleb. pneumo. SK 1200", "assay": "in vitro MIC testing, Kleb. pneumo. SK 1200", "type": "cell-based", "protocol": "as §1"}, "Salmonella ATCC 12176": {"tested_on": "Salmonella ATCC 12176", "assay": "in vitro MIC testing, Salmonella ATCC 12176", "type": "cell-based", "conditions": "ATCC12176", "protocol": "as §1"}, "Shigella HH 117": {"tested_on": "Shigella HH 117", "assay": "in vitro MIC testing, Shigella HH 117", "type": "cell-based", "conditions": "HH117", "protocol": "as §1"}, "Pseudo. aerug. HH 63": {"tested_on": "Pseudo. aerug. HH 63", "assay": "in vitro MIC testing, Pseudo. aerug. HH 63", "type": "cell-based", "protocol": "as §1"}, "[1]": {"tested_on": "Serratia marc. ATCC 13880", "assay": "in vitro MIC testing, Serratia marc. ATCC 13880", "type": "cell-based", "conditions": "ATCC13880", "protocol": "as §1"}, "Kleb. pneumo. SK 4200": {"tested_on": "Kleb. pneumo. SK 4200", "assay": "in vitro MIC testing, Kleb. pneumo. SK 4200", "type": "cell-based", "protocol": "as §1"}, "Proteus morgani 179": {"tested_on": "Proteus morgani 179", "assay": "in vitro MIC testing, Proteus morgani 179", "type": "cell-based", "protocol": "as §1"}, "[2]": {"tested_on": "Entero. aerog. ATCC 13048", "assay": "in vitro MIC testing, Entero. aerog. ATCC 13048", "type": "cell-based", "protocol": "as §1"}, "Entero. cloacae HH 31254": {"tested_on": "Entero. cloacae HH 31254", "assay": "in vitro MIC testing, Entero. cloacae HH 31254", "type": "cell-based", "conditions": "Enterobacter cloacae, HH31254", "protocol": "as §1"}, "E. coli 12140": {"tested_on": "E. coli 12140", "assay": "in vivo mouse protection test, E. coli 12140", "conditions": "Escherichia coli, sc; subcutaneous injection; against E. coli 12140", "description": "(§2) 4200 upon subcutaneous injection."}, "Kleb. pneumo. 4200": {"tested_on": "Kleb. pneumo. 4200", "assay": "in vivo mouse protection test, Kleb. pneumo. 4200", "conditions": "sc, subcutaneous injection, against Kleb. pneumo. 4200", "description": "as §2"}}, "note": "Read-outs that look alike come from different tables or passages of the source.", "data": [{"smiles": "O=C([O-])Cc1nnc(SCC2=C(C(=O)[O-])N3C(=O)C(NC(=O)[C@H](O)c4ccccc4)[C@H]3SC2)o1.[Na+].[Na+]", "note": "(stereo partly drawn) [7-D-Mandelamido-3-(5-carboxymethyl-1,3,4-oxadiazol-2-ylthiomethyl)-3-cephem-4-carboxylic acid disodium salt]", "values": [{"measurement": "MIC", "setting": "S. aureus HH 125", "result": 3.1, "unit": "µg/mL"}, {"measurement": "MIC", "setting": "S. aureus SK 23390", "result": 0.8, "unit": "µg/mL"}, {"measurement": "MIC", "setting": "S. villaluz SK 70390", "result": 200, "unit": "µg/mL"}, {"measurement": "MIC", "setting": "Strep. faecalis HH 34358", "result": 50, "unit": "µg/mL"}, {"measurement": "MIC", "setting": "E. coli SK 12140", "result": 0.8, "unit": "µg/mL"}, {"measurement": "MIC", "setting": "E. coli HH 33779", "result": 3.1, "unit": "µg/mL"}, {"measurement": "MIC", "setting": "Kleb. pneumo. SK 1200", "result": 0.4, "unit": "µg/mL"}, {"measurement": "MIC", "setting": "Salmonella ATCC 12176", "result": 0.8, "unit": "µg/mL"}, {"measurement": "MIC", "setting": "Shigella HH 117", "result": 0.4, "unit": "µg/mL"}, {"measurement": "MIC", "setting": "Pseudo. aerug. HH 63", "result": "> 200", "unit": "µg/mL"}, {"measurement": "MIC", "setting": "[1]; Serratia", "result": 50, "unit": "µg/mL"}]}, {"smiles": "O=C(O)Cc1nnc(SCC2=C(C(=O)O)N3C(=O)C(NC(=O)[C@H](O)c4ccccc4)[C@H]3SC2)o1", "note": "(stereo partly drawn) [7-D-Mandelamido-3-(5-carboxymethyl-1,3,4-oxadiazol-2-ylthiomethyl)-3-cephem-4-carboxylic acid]", "values": [{"measurement": "MIC", "setting": "S. aureus HH 125; in vitro, S. aureus HH 125, read-out: MIC", "result": 1.6, "unit": "µg/mL"}, {"measurement": "MIC", "setting": "S. aureus SK 23390; in vitro, S. aureus SK 23390, read-out: MIC", "result": 0.4, "unit": "µg/mL"}, {"measurement": "MIC", "setting": "S. villaluz SK 70390", "result": 50, "unit": "µg/mL"}, {"measurement": "MIC", "setting": "Strep. faecalis HH 34358; in vitro, Strep. faecalis HH 34358, read-out: MIC", "result": 12.5, "unit": "µg/mL"}, {"measurement": "MIC", "setting": "E. coli SK 12140", "result": 0.8, "unit": "µg/mL"}, {"measurement": "MIC", "setting": "E. coli HH 33779", "result": 1.6, "unit": "µg/mL"}, {"measurement": "MIC", "setting": "Kleb. pneumo. SK 4200", "result": 0.8, "unit": "µg/mL"}, {"measurement": "MIC", "setting": "Kleb. pneumo. SK 1200; in vitro, Kleb. pneumo. SK 1200, read-out: MIC", "result": 0.8, "unit": "µg/mL"}, {"measurement": "MIC", "setting": "Salmonella ATCC 12176", "result": 0.8, "unit": "µg/mL"}, {"measurement": "MIC", "setting": "Shigella HH 117", "result": 0.2, "unit": "µg/mL"}, {"measurement": "MIC", "setting": "Pseudo. aerug. HH 63", "result": "> 200", "unit": "µg/mL"}, {"measurement": "MIC", "setting": "[1]; in vitro, Serratia marc. ATCC 13880, read-out: MIC", "result": 25, "unit": "µg/mL"}, {"measurement": "MIC", "setting": "Proteus morgani 179", "result": 6.3, "unit": "µg/mL"}, {"measurement": "MIC", "setting": "[2]", "result": 3.1, "unit": "µg/mL"}, {"measurement": "MIC", "setting": "Entero. cloacae HH 31254", "result": 1.6, "unit": "µg/mL"}, {"measurement": "ED50", "setting": "E. coli 12140", "result": 1.56, "unit": "mg/kg"}, {"measurement": "ED50", "setting": "Kleb. pneumo. 4200", "result": 0.86, "unit": "mg/kg"}]}]}
